Tested on: U2OS osteosarcoma cells
Details: 250 ml of a 40 mM solution of histamine added after 20 seconds; control cells steady state 4500000 fluorescence units; 37° C.; FluoroMax-3 spectrofluorimeter
Method: i) U2OS osteosarcoma cells were grown on collagen coated CYTODEX™ 3 microcarriers (GE Healthcare) according to the Manufacturer's instructions in DMEM media (Invitrogen) supplemented with 10% (v/v) fetal bovine serum (Sigma). Once the culture had attained the required volume and cell density the cells on beads were loaded with 1 μM Fluo-4 (Invitrogen). Microcarriers were allowed to settle, the growth media removed and replaced with calcium flux buffer (145 mM sodium chloride, 5 mM potassium chloride, 1 mM magnesium sulphate, 10 mM HEPES, 10 mM D-glucose, 1 mM calcium chloride containing 1% BSA, 1 μM Fluo-4 (Invitrogen) and the cells incubated for 40 minutes at 37° C. Beads were allowed to settle, the calcium flux buffer removed and replaced with DMEM media supplemented with 10% (v/v) fetal bovine serum and glycerol (10% v/v final concentration) was added as a cryo-preservative. Fluo-4 loaded cells on beads were divided into aliquots of 8×10^5 cells and the 1 ml aliquots frozen to −140° C. at a freezing rate of 1° C./minute. ii) To set up the cell assay, vials of cryo-preserved cells were rapidly thawed in a water bath at 37° C. and cells on bead suspensions placed in 1.5 ml spectrofluorimeter cuvettes and equilibrated at 37° C. for 30 minutes. Fluorescence measurements were acquired over time using a FluoroMax-3 spectrofluorimeter using excitation and emission settings for Fluo-4.

`NCCc1c[nH]cn1` [histamine] was tested, and the “Fluo-4 fluorescence after addition of histamine (intracellular calcium release)” value was 5170000 fluorescence units.

Source: US20100233681A1, “METHOD FOR CELL BASED ASSAYS” (GE Healthcare UK Limited, priority 2006, published 2010)
